Data taken from patent US7160725B2, “Hedgehog signaling promotes the formation of three dimensional cartilage matrices” (Curis, Inc., priority 2001, dated 2007).
Entries after “also recorded” stand apart in the source; their conditions may differ.

Key:
Type in all cases: cell-based, human
[1] = system: Mesenchymal stem cells; assay: Change in mesenchymal stem cell behavior following factor treatment (culture observation)
Procedure: Mesenchymal stem cells were derived from human volunteers under general anesthesia. Bone marrow was harvested from the iliac crest by aspiration. Approximately 5 mL of bone marrow was suspended in essential medium containing 20% fetal bovine serum (FBS), antibiotics, and glutamine (Sigma). […] The non-adherent cells, as well as any debris, is easily separated from the adherent mesenchymal stem cells.
Mesenchymal stem cells were plated at a density of 1×10^6/mL in a six well plate. Following adhesion of the cells to the plate, cells were treated with either medium containing 20% FBS, with medium supplemented with TGFβ-1, or with medium supplemented with sonic hedgehog.
Following adhesion of cells to the plate, cells were treated with either medium containing 20% FBS (negative control), medium containing 1 ng/mL TGFβ-1, or medium containing 100 ng/mL of the lipid modified N-terminal fragment of sonic hedgehog. In all cases, the medium was changes twice per week throughout the duration of the experiment.

[2] = system: Mesenchymal stem cells; assay: Hematoxyline-eosine staining of paraffin sections of treated tissue; conditions: 100 ng/mL lipid modified sonic hedgehog; 21 days
Procedure: (§1) Mesenchymal stem cell cultures were established, as described in detail above. Cells were cultured in the presence of 20% FBS, 1 ng/mL TGFβ-1, or 100 ng/mL lipid modified sonic hedgehog, and the medium was changed twice per week. After 21 days in culture, tissue was harvested, and fixed overnight in formaline solution. Fixed tissue was washed, dehydrated, embedded in paraffin, and 4 μm sections were cut using a microtome. Sections were mounted on adhesive slides, and processed for histology and immunohistochemistry.
Mounted paraffin sections were stained with hematoxyline-eosine, and viewed under a light microscope.

[3] = system: Mesenchymal stem cells; assay: Alcian blue staining of paraffin sections of treated tissue; conditions: 100 ng/mL lipid modified sonic hedgehog; 21 days; Alcian blue pH 2.5
Procedure: as §1
Mounted paraffin sections were stained with Alcian blue. Sections were treated with Alcian blue, pH 2.5 and 3% Acetic acid for five minutes. Following treatment, the sections were washed with ultrapure water.

[4] = system: Mesenchymal stem cells; assay: Immunohistochemistry of paraffin sections of treated tissue; conditions: 100 ng/mL lipid modified sonic hedgehog; 21 days
Procedure: as §1
Mounted paraffin sections were processed for immunohistochemistry with an automatic stainer (DAKO TechMate™) using indirect streptavidin-biotin methods with a Fuchsintype chromogen. The following primary antibodies were used: vimentin, collagen II, Indian hedgehog, PTHrp, BMPR-IA, BMPR-IB, and BMPR-II. Immunohistochemistry was by standard methods except for the PTHrp antibody which required incubation of the tissue with proteinase K.

[5] = 1 ng/mL TGFβ-1, after a week in culture

| Substance | cell morphology [1, 5] | cell size [1, 5] | proliferative effects on mesenchymal stem cells ([1]; treatment with TGFβ-1) | cell migration and clustering in the culture well ([1]; 100 ng/mL lipid modified N-terminal fragment of sonic hedgehog, after the first two weeks in culture) | formation of a ball of tissue from the cell cluster ([1]; 100 ng/mL lipid modified N-terminal fragment of sonic hedgehog, approximately three weeks in culture) | cell proliferation in culture ([1]; 100 ng/mL lipid modified N-terminal fragment of sonic hedgehog, first two weeks in culture) | tissue organization and matrix production (hematoxyline-eosine, light microscope) [2] | Alcian blue staining (acid mucopolysaccharids) [3] | BMPR-IA immunostaining [4] | BMPR-IB immunostaining [4] | BMPR-II immunostaining [4] | Indian hedgehog immunostaining [4] | PTHrp immunostaining [4] | collagen II immunostaining [4] | vimentin immunostaining [4] |
| --- | --- | --- | --- | --- | --- | --- | --- | --- | --- | --- | --- | --- | --- | --- | --- |
| TGFβ-1: TGFβ family polypeptide, added to the culture medium at 1 ng/mL | morphologically distinct | larger | robust proliferative effects |  |  |  |  |  |  |  |  |  |  |  |  |
| sonic hedgehog |  |  |  | appeared to migrate and clustered in one half the area of the culture well | condensed and migrated to form a small ball; also recorded: formed a grayish-white ball | proliferated efficiently | extensive organization of the tissue, the intricate folding of the layers, and the abundant matrix production; also recorded: highly organized, contains several folded layers, and produces abundant matrix | Positive | not detected; also recorded: immunonegative | immunopositive | immunopositive | immunonegative | immunopositive | strongly expressed; also recorded: strongly immunopositive | strongly immunopositive |
